This note sets out measurements from PubChem BioAssay AID489027 (Sanford-Burnham Center for Chemical Genomics, 2010).

One may read the EC50 as the concentration that produces a half-maximal response.

The structures appear in SMILES notation. Activity calls are given as the source filed them. No rule for the calls is given here.

The target of this assay is UPR counterscreen luciferase reporter, luminescence. The assay is described as follows: activators in UPR counterscreen luciferase reporter, dose response, counter-screen for adaptive UPR activator project, cell-based, luminescence (AID 489027). Background: The purpose of a counterscreen is to sort out artefacts and off-target activity.
On to `CCOc1ccc(NC(=O)C(Cc2ccccc2)N2C(=O)c3cccc4cccc(c34)C2=O)cc1` (stereo not drawn), for which the EC50 was > 80 µM (inactive).

For the compound `CC1=CC(C)[C@H](/C=N/n2c(=O)[nH]c3c([nH]c4ccc(C)cc43)c2=O)C(C)C1` (stereo partly drawn), the EC50 entry was “inactive”.

Turning to `CCC(=O)Nc1nnc(SCC(=O)c2ccc3c(c2)Cc2ccccc2-3)s1`, the EC50 result is “inactive”.

As to `N#Cc1cc2c(nc1SCC(=O)Nc1sc3c(c1C#N)CCC3)CCCC2`, the EC50 entry was “inactive”.

As to `COc1ccc(-c2sc3ccccc3c2-c2ccc(OCCN(C)C)cc2)cc1`, the concentration for a half-maximal effect (EC50) was 13.3 µM.

As for `O=C(/C=C/c1cc([N+](=O)[O-])ccc1OC(F)F)Nc1cccc([N+](=O)[O-])c1`, the EC50 is > 80 µM (inactive).

With `COc1ccc(Cn2c(SCc3cc(C)ccc3C)nc3cc(OC)c(OC)cc3c2=N)cc1`, the EC50 was > 80 µM (inactive).

On to `CCCCCc1nc2c(c(=O)c3ccccc3n2C)c(=O)n1C1CCCCCC1`, for which the half-maximal effective concentration (EC50) was 15.3 µM.

Regarding `COc1ccc(-c2csc3nc(-c4ccc(C)cc4)oc(=O)c23)cc1OC`, the EC50 is > 80 µM (inactive).

Regarding `CCCn1c(Nc2nc3ccccc3n2C)nc2ccccc21`, the EC50 entry was “inactive”.

In the case of `CCc1ccc2[nH]c3nc(SCC(=O)NNC(=O)c4ccc(C(C)(C)C)cc4)nnc3c2c1`, the EC50 result was “inactive”.

On to `Cc1cc(NC(=O)CSc2nc3cc(Cl)ccc3c(=O)n2Cc2ccco2)no1`, for which the EC50 is > 80 µM (inactive).

`CC1(C)CC(=O)C(C=Nc2ccc(C(=O)c3ccccc3)cc2N=CC2=C(O)CC(C)(C)CC2=O)=C(O)C1`: the EC50 was 9.78 µM.

For `CC(C)=CCc1c2c(c3occ(-c4ccc(O)cc4)c(=O)c3c1O)C=CC(C)(C)O2`, the EC50 was 16.6 µM.

Regarding `CCOC(=O)c1c(NC(=O)CNC2CCCc3ccccc32)sc(C(N)=O)c1C` (stereo not drawn), the EC50 was > 80 µM (inactive).

Consider `COc1ccc(C2CC(c3c(-c4ccccc4)c4cc(Cl)ccc4[nH]c3=O)=NN2S(C)(=O)=O)cc1` (stereo not drawn), for which the EC50 was > 80 µM (inactive).

With `Cc1cc(C)c2sc(N(CCCN(C)C)C(=O)c3ccc(S(=O)(=O)N4CCCc5ccccc54)cc3)nc2c1`, the EC50 was > 80 µM (inactive).

In the case of `Cn1c(/C=C/c2ccc(Cl)cc2Cl)c([N+](=O)[O-])c(=O)n(C)c1=O`, the EC50 was 12.8 µM.

As for `O=[N+]([O-])c1ccc(Cl)c(-c2ccc(/C=N/c3c(-c4ccco4)nc4ccccn34)o2)c1`, the EC50 entry was “inactive”.

In the case of `COc1ccccc1-c1sc2cc3c(cc2c1-c1ccc(OCCN2CCCCC2)cc1)OCO3`, the EC50 was 17.7 µM.

As for `Cc1ccc(-n2nc3c(N4CCC(C(=O)NCCc5cccs5)CC4)nnc(C)c3c2C)cc1`, the EC50 was > 80 µM (inactive).

Turning to `O=C(Nc1ccc(Br)cc1)c1cc(-c2ccncc2)nc2ccccc12`, the EC50 was 12.7 µM.

As for `Clc1ccc(-c2ccc(/C=N/Nc3nncc(-c4ccccc4)n3)o2)cc1`, the concentration giving a half-maximal response (EC50) is 13.6 µM.

Consider `COc1ccc(CCn2c(=S)[nH]c3cc(C(=O)NCc4ccco4)ccc3c2=O)cc1OC`, for which the EC50 was > 80 µM (inactive).

Take `Cc1ccc(O)c(NC(=S)NC(=O)Cc2ccc(Cl)cc2)c1`: the EC50 result is “inactive”.

`CCC1CCc2c(sc3nc(SCC(=O)NCc4ccco4)n(-c4ccccc4)c(=O)c23)C1` (stereo not drawn): the EC50 was 15.8 µM.

In the case of `CCCCN1C(=O)/C(=C2/Sc3ccc(OC)cc3N2CC)SC1=S`, the EC50 result was “inactive”.

Turning to `COc1ccc(Br)cc1-c1nc2c(c(=O)[nH]c(=O)n2Cc2ccccc2)n1C`, the EC50 was > 80 µM (inactive).

Regarding `O=C(Nc1ccc(-c2nc3cc(NC(=O)c4cccs4)ccc3o2)cc1)c1cccs1`, the concentration giving a half-maximal response (EC50) was 4.72 µM.

`COc1ccc2[nH]c3nc(SCc4nnc(-c5ccc(C)cc5)o4)nnc3c2c1`: the EC50 was 19.7 µM.

Take `CSc1ccccc1NC(=O)c1cc(-c2cccnc2)nc2ccc(Br)cc12`: the EC50 is > 80 µM (inactive).

On to `Cc1ccc2nc(Nc3nc(C)cc(-c4ccccc4)n3)[nH]c(=O)c2c1`, for which the EC50 is > 80 µM (inactive).

On to `O=C(/C=C\c1cn(-c2ccccc2)nc1-c1ccccc1)Nc1nccs1`, for which the EC50 was > 80 µM (inactive).

Take `CCOc1ccccc1N=Cc1c(O)c2ccccc2oc1=O`: the EC50 is 8.11 µM.

Turning to `O=S(=O)(c1ccc2nc(-c3ccccc3)[nH]c2c1)N1CCN(c2ccc(Cl)cc2)CC1`, the EC50 was > 80 µM (inactive).

As to `CCOc1ccc(NC(=S)NC(=O)/C=C/c2ccc(C)cc2)c([N+](=O)[O-])c1`, the EC50 is > 80 µM (inactive).

With `Cc1ccc2c(=O)[nH]c(Nc3nc(C)cc(-c4ccccc4)n3)nc2c1`, the EC50 is > 80 µM (inactive).

Consider `COc1cc(NC(=O)c2ccco2)c(C(=O)OCC(=O)c2c[nH]c3ccccc23)cc1OC`, for which the EC50 was > 80 µM (inactive).

On to `Cc1ccc2nc(SCC(=O)Nc3cc(C(F)(F)F)ccc3N3CCOCC3)[nH]c2c1`, for which the EC50 result is “inactive”.

Consider `CCCCCCCCCCOC(=O)Cn1c(COc2ccccc2C)[n+](C)c2ccccc21`, for which the EC50 is > 80 µM (inactive).

Turning to `CCCCCCCCCCOC(=O)Cn1c(COc2ccccc2OC)[n+](C)c2ccccc21`, the EC50 is 12.8 µM.

In the case of `Cc1ccc(NC(=O)COc2ccc(/C=C3/SC(=Nc4ccccc4)N(Cc4cccnc4)C3=O)cc2)cc1`, the half-maximal effective concentration (EC50) was 19.6 µM.

In the case of `COc1ccc(NC(=O)c2cc3c(=O)n(C)c4ccccc4c3n2C)cc1Cl`, the EC50 is > 80 µM (inactive).

As for `Cc1cc(C)c2c(CCl)cc(=O)oc2c1`, the 50% effective concentration (EC50) was 19.1 µM.

Take `CCOC(=O)c1sc(-c2ccccc2)cc1NC(=O)Nc1ccc([N+](=O)[O-])cc1`: the EC50 was 16.2 µM.

Consider `CCCCN(CC)S(=O)(=O)c1ccc(C(=O)N(CCCN(C)C)c2nc3cc(C)cc(C)c3s2)cc1`, for which the EC50 is 11.4 µM.

On to `COc1cc([C@H]2c3[nH]c4ccccc4c3C[C@H]3C(=O)N4[C@@H](c5cc(OC)c(OC)c(OC)c5)c5[nH]c6ccccc6c5C[C@H]4C(=O)N23)cc(OC)c1OC`, for which the concentration for a half-maximal effect (EC50) is 7.28 µM.

Take `Cc1cnc(NC(=O)c2cc3c(C)nn(Cc4ccccc4Cl)c3s2)s1`: the EC50 is > 80 µM (inactive).

In the case of `CCOC(=O)C1=C(C)n2c(s/c(=C/c3cccc([N+](=O)[O-])c3)c2=O)=NC1c1ccc(O)c(OC)c1` (stereo not drawn), the EC50 entry is “inactive”.

In the case of `O=C(Nc1ccc(O)c(-c2nc3ccccc3s2)c1)c1cc(=O)c2ccccc2o1`, the EC50 was > 80 µM (inactive).

As to `CC1CCC(C(C)C)C(OC(=O)Cn2c(-c3ccc(Br)cc3)[n+](C)c3ccccc32)C1` (stereo not drawn), the EC50 is 10.9 µM.

With `O=C(NCc1ccccc1Br)c1cccc2c1C(=O)c1ccc(-c3ccc(OC(F)(F)F)cc3)cc1S2(=O)=O`, the 50% effective concentration (EC50) was 9.03 µM.

For the compound `CCOc1ccc2nc(NC3=NC(c4ccc(OC)cc4)CC(=O)N3)nc(C)c2c1` (stereo not drawn), the concentration giving a half-maximal response (EC50) was 11.8 µM.

Turning to `O=C(NC1CCCCC1)c1cccc2c1C(=O)c1ccc(-c3ccc(OC(F)(F)F)cc3)cc1S2(=O)=O`, the EC50 is > 80 µM (inactive).

For the compound `CCc1cc2c(C)ccc(C)c2nc1SCC(=O)Nc1c[nH]c(=O)[nH]c1=O`, the EC50 is 16.8 µM.

`OCCCn1c(C2CCCN2c2nc(-c3ccc(F)cc3)cs2)nc2cc(Cl)c(N3CCCCC3)cc21` (stereo not drawn): the EC50 is > 80 µM (inactive).

For `COc1ccc(-c2csc(C3=C(O)CN(Cc4ccc(Cl)cc4)C3=N)n2)cc1OC`, the EC50 is > 80 µM (inactive).

Consider `CCc1ccc(N2C(=O)NC(=O)/C(=C\c3cccn3CCOc3ccc(C(C)C)cc3)C2=O)cc1`, for which the EC50 was 6.38 µM.

Turning to `Cc1ccc(CNC(=O)c2ccc3c(=O)n4c(-c5ccc(C)cc5)csc4nc3c2)cc1`, the EC50 was > 80 µM (inactive).

Turning to `Fc1ccc(Nc2nc(NCc3ccco3)c3ccccc3n2)cc1`, the EC50 was > 80 µM (inactive).

For `CC1C/C(=N/Nc2nc3ccccc3[nH]2)CC(C)(C)C1` (stereo not drawn), the 50% effective concentration (EC50) is 14.6 µM.

For the compound `Cc1ccc2oc(C(Cl)(Cl)Cl)cc(=O)c2c1`, the EC50 was > 80 µM (inactive).

For the compound `Cc1ccc(C)c(N=Cc2c(O)c3ccccc3oc2=O)c1`, the EC50 result was “inactive”.

Consider `Cc1ccc(NS(=O)(=O)c2cc([N+](=O)[O-])ccc2N/N=C/c2sc(N3CCOCC3)nc2-c2ccccc2)c(C)c1`, for which the EC50 was > 80 µM (inactive).

Take `CCc1ccc(-c2nc(CN3CCC(C(=O)NCCN(CC)c4ccccc4)CC3)c(C)o2)cc1`: the EC50 was > 80 µM (inactive).

With `CCOc1ccc(-n2c(C)cc(C(=O)CCl)c2C)cc1`, the EC50 was 6.73 µM.

Regarding `COc1ccc(NC(=O)c2sc3nc(N4CCOCC4)c4c(c3c2N)CC(C)(C)OC4)c(OC)c1`, the EC50 is 19.3 µM.

In the case of `CCCCCCCCCCOC(=O)Cn1c(COc2ccc(OC)cc2)[n+](C)c2ccccc21`, the EC50 was 18.8 µM.

`C/C(CCC12CC3CC(CC(C3)C1)C2)=N\NC(N)=S`: the EC50 entry was “inactive”.

On to `COc1cccc(-n2c(SCC(=O)N3CCc4ccccc43)nnc2-c2c[nH]c3ccccc23)c1`, for which the EC50 was > 80 µM (inactive).

Regarding `COc1ccc2oc(-c3ccc(C)c(NC(=O)c4ccc(N5CCOCC5)c([N+](=O)[O-])c4)c3)nc2c1`, the EC50 is > 80 µM (inactive).

Regarding `COc1ccc(N=Cc2c(O)c3ccccc3oc2=O)cc1`, the EC50 was 10.3 µM.

As to `NCCOc1ccc(C23CC4CC(CC(C4)C2)C3)cc1`, the concentration giving a half-maximal response (EC50) is 8.74 µM.

In the case of `N/C(=N\c1nc(CSc2ccccn2)cc(=O)[nH]1)Nc1ccc(Cl)cc1Cl`, the EC50 is > 80 µM (inactive).

In the case of `CC1CCc2c(sc(NC(=O)CCc3nc4ccccc4c(=O)[nH]3)c2C#N)C1` (stereo not drawn), the EC50 entry was “inactive”.

Consider `N#C/C(=C\c1ccc(OCc2ccccc2)cc1)C(=O)Nc1nc2c(s1)CCN(Cc1ccccc1)C2`, for which the EC50 was 13.3 µM.

In the case of `O=C(COc1ccc(Cl)cc1Cl)NN=C1c2ccccc2-c2ccccc21`, the EC50 result is “inactive”.

For `CCc1cc2c(=O)c(-c3cnn(-c4ccccc4)c3)c(C)oc2cc1OCC(=O)Nc1cccc(C)c1`, the EC50 was 11.5 µM.

Take `FC(F)(F)c1nnc2c(Sc3ccccc3)nc3ccc(Cl)cc3n12`: the EC50 is 4.29 µM.

For the compound `CN(C)c1ccc(/C=N/NC(=O)c2ccc(NC(=O)c3ccccc3)cc2)cc1`, the EC50 result was “inactive”.

In the case of `COc1ccc2[nH]c3c(c2c1)CCN1C(=O)C(CC(=O)NC/C=C(\C)CCC=C(C)C)C[C@H](C(=O)N2CCOCC2)[C@@]31CCC1CCCC1` (stereo partly drawn), the half-maximal effective concentration (EC50) was 18.5 µM.

On to `OCCNc1nc(Nc2ccc(Cl)c(Cl)c2)nc2ccccc12`, for which the 50% effective concentration (EC50) is 10.8 µM.

As for `CCOC(=O)/C(=N\Nc1ccc(C(C)=O)cc1)c1csc(Nc2ccccc2)n1`, the EC50 result was “inactive”.
